Series [1] deals with FADU. It counts as cell-based, Human.
Series [2] has as its system Micrococcus luteus. As to the kind of experiment: Disk susceptibility testing, Micrococcus luteus. In kind it is cell-based.
Series [3] deals with SK-N-SH. In kind it is cell-based, Human.
Series [4] relates to P388 lymphocytic leukemia. In kind it is cell-based, Murine.
In series [5] the test system is BXPC-3. In kind it is cell-based, Human.
The subject of series [6] is NCI-H460. It counts as cell-based, Human.
Series [7] deals with DU-145. It counts as cell-based, Human.
Series [8] deals with SW1736. It counts as cell-based, Human.
Series [9] concerns Enterobacter cloacae. The following applies: disk susceptibility.
The test system of series [10] is Staphylococcus aureus. The note with it: disk susceptibility.
Series [11] concerns Stenotrophomonas maltophilia. The following applies: disk susceptibility.
For series [12], the system named is Neisseria gonorrhoeae. It counts as cell-based.
The test system of series [13] is eight bacteria and two fungi tested. As to the kind of experiment: Disk susceptibility testing, whole microbe panel. It counts as cell-based. The note with it: disk susceptibility, bacteria and fungi tested.
Series [14] has as its system Escherichia coli. The following applies: disk susceptibility.
Series [15] concerns Streptococcus pneumoniae. The note with it: disk susceptibility.
Series [16] relates to Enterococcus faecalis. The following applies: disk susceptibility.
Series [17] concerns SK-Mel-3. In kind it is cell-based, Human.
For series [18], the system named is full-panel NCl screen. The note with it: cited from earlier work; for GI50: read-out: mean panel GI50 concentration.
Series [19] deals with tubulin. The following applies: reported (Lin et al., 1988); cited from earlier work.
Series [20] in a line: Solubility in water. The note with it: for Solubility: mg per 1 ml water at 25° C.
The test system of series [21] is Candida albicans. As to the kind of experiment: Disk susceptibility testing, Candida albicans. It counts as cell-based.
Series [22] relates to Cryptococcus neoformans. As to the kind of experiment: Disk susceptibility testing, Cryptococcus neoformans. It counts as cell-based.
The mark [23] stands for this setting: murine P-388 leukemia, 48 hours.
The mark [24] stands for this setting: Neisseria gonorrhoeae, disk susceptibility.

Values after ≈ are worked out from the molar mass of the structure shown. Where two headings read alike, the source gives them in different places. Where only a bound is given, the exact number is not on record here.

The term inhibition denotes the change of the read-out against control, counted positive when it falls. The term Solubility denotes how much of the substance goes into solution per volume.

As to `COc1ccc(/C=C/c2cc(OC)c(OC)c(OC)c2)cc1O` [Compound 4a, (E)-combretastatin A-4], the “GI50 Pharynx FADU” value in series [1] (FADU, 48 hours) came out at 0.040 µg/mL (≈ 0.126 µM). In addition, the “Minimum inhibitory amount per disk” value in series [2] is 25–50 μg/disk. The “GI50 Neuroblast SK-N-SH” value in series [3] (SK-N-SH, 48 hours) came out at 0.029 µg/mL (≈ 0.0917 µM). Besides, the “ED50 P-388” value in series [4] (setting [23]) was 0.280 µg/mL (≈ 0.885 µM). In [5] (BXPC-3, 48 hours), the “GI50 Pancreas BXPC-3” value amounted to 3.9 µg/mL (≈ 12.3 µM). Further, the “GI50 Lung-NSC NCI-H460” value in series [6] (NCI-H460, 48 hours) is 0.038 µg/mL (≈ 0.12 µM). For the same compound, in series [7] (DU-145, 48 hours), the “GI50 Prostate DU-145” value came out at 0.037 µg/mL (≈ 0.117 µM). For the same compound, the “GI50 Thyroid SW1736” value in [8] (SW1736, 48 hours) was 0.080 µg/mL (≈ 0.253 µM).

`CN(C)C1C(=O)C(C(N)=O)=C(O)C2(O)C(=O)C3=C(O)c4c(O)cccc4C(C)(O)C3CC12.COc1ccc(C=Cc2cc(OC)c(OC)c(OC)c2)cc1OP(=O)(O)O` (stereo not drawn) [Compound 5r, Tetracycline combretastatin A-4 3-O-phosphate]: the Minimum inhibitory concentration is given as 3.12–6.25 μg/disk in [9]; 0.195–0.39 μg/disk in series [10]; 6.25–12.5 μg/disk in series [11]; 3.12–6.25 μg/disk in [14]; 0.195–0.39 μg/disk in series [15]; 25–50 μg/disk in series [16]. The “GI50 Pharynx FADU” value in [1] (FADU, 48 hours) turned out to be 0.0055 µg/mL. Besides, the results for the “Minimum inhibitory amount per disk” value in [2] and in [12] (setting [24]) were 0.78–1.56 μg/disk and 3.12–6.25 μg/disk, respectively. Moreover, in [3] (SK-N-SH, 48 hours), the “GI50 Neuroblast SK-N-SH” value was 0.0032 µg/mL. Moreover, the “ED50 P-388” value in series [4] (setting [23]) was found to be 0.037 µg/mL. For the same compound, the “GI50 Pancreas BXPC-3” value in series [5] (BXPC-3, 48 hours) came out at 0.57 µg/mL. Besides, in series [13], the “antimicrobial growth inhibition (in words)” value is “inhibited the growth of all Gram-negative and Gram-positive bacteria tested”. In addition, the “GI50 Lung-NSC NCI-H460” value in [6] (NCI-H460, 48 hours) worked out at 0.0046 µg/mL. The “GI50 Prostate DU-145” value in series [7] (DU-145, 48 hours) was determined as 0.058 µg/mL. Also, the “GI50 Thyroid SW1736” value in [8] (SW1736, 48 hours) was 0.012 µg/mL.

Take “Combretastatin A-4 [Compound 1a, reference compound]”: the “GI50 Pharynx FADU” value in [1] was 0.00065 µg/mL. In series [17], the “GI50 Melanoma SK-Mel-3” value came out at 0.0002 µg/mL. In series [12], the “Minimum inhibitory amount per disk” value is listed as 25–50 μg/disk and the “growth inhibition of Neisseria gonorrhoeae (in words)” value was “inhibited growth”. The GI50 in series [18] was 6.61 nM. Further, the “inhibition at the colchicine binding site of tubulin” value in [19] is given as 97%. In addition, the “GI50 Neuroblast SK-N-SH” value in series [3] was found to be 0.00026 µg/mL. Moreover, the “ED50 P-388” value in [4] stood at 0.00266 µg/mL. Also, the “GI50 Pancreas BXPC-3” value in [5] was over 0.1 µg/mL. The “GI50 Lung-NSC NCI-H460” value in [6] is 0.00056 µg/mL. Also, in series [7], the “GI50 Prostate DU-145” value stood at 0.00076 µg/mL. In addition, the “GI50 Thyroid SW1736” value in [8] came out at 0.00071 µg/mL.

With “Manganese combretastatin A-4 3′-O-phosphate [Compound 5e]”, the “GI50 Pharynx FADU” value in series [1] (FADU, 48 hours) amounted to 0.00091 µg/mL. The “GI50 Melanoma SK-Mel-3” value in series [17] (SK-Mel-3, 48 hours) came to 0.0036 µg/mL. Moreover, in series [20], the “Solubility” value amounted to 3000 µg/mL. In addition, in series [12] (setting [24]), the “Minimum inhibitory amount per disk” value was 6.25–12.5 μg/disk. For the same compound, the “GI50 Neuroblast SK-N-SH” value in series [3] (SK-N-SH, 48 hours) was 0.014 µg/mL. Besides, the “ED50 P-388” value in series [4] (setting [23]) was found to be 0.016 µg/mL. For the same compound, the “GI50 Pancreas BXPC-3” value in series [5] (BXPC-3, 48 hours) is 0.20 µg/mL. The “antimicrobial growth inhibition (in words)” value in [13] was “inhibitory to opportunistic fungi”. Further, the “GI50 Lung-NSC NCI-H460” value in series [6] (NCI-H460, 48 hours) came to 0.0015 µg/mL. The Minimum inhibitory concentration in [21] is given as 25–50 μg/disk; in series [22] it was 12.5–25 μg/disk. The “GI50 Prostate DU-145” value in series [7] (DU-145, 48 hours) was under 0.001 µg/mL. Further, the “GI50 Thyroid SW1736” value in [8] (SW1736, 48 hours) is 14.7 µg/mL.

As to “Piperazine combretastatin A-4 3′-O-phosphate [Compound 5i]”, the “GI50 Pharynx FADU” value in series [1] (FADU, 48 hours) amounted to 0.0018 µg/mL. Moreover, in series [17] (SK-Mel-3, 48 hours), the “GI50 Melanoma SK-Mel-3” value was determined as 0.0036 µg/mL. In addition, the “Minimum inhibitory amount per disk” value in series [12] (setting [24]) is on record as 25–50 μg/disk. In addition, in series [3] (SK-N-SH, 48 hours), the “GI50 Neuroblast SK-N-SH” value was found to be 0.021 µg/mL. Moreover, the “ED50 P-388” value in series [4] (setting [23]) came out at 0.0016 µg/mL. The “GI50 Pancreas BXPC-3” value in series [5] (BXPC-3, 48 hours) was found to be 0.19 µg/mL. In addition, the “antimicrobial growth inhibition (in words)” value in series [13] is listed as “inhibitory to opportunistic fungi”. Further, the “GI50 Lung-NSC NCI-H460” value in series [6] (NCI-H460, 48 hours) amounted to 0.0028 µg/mL. The results for the Minimum inhibitory concentration in [21] and in series [22] were 50–100 μg/disk and 25–50 μg/disk, respectively. Moreover, in series [7] (DU-145, 48 hours), the “GI50 Prostate DU-145” value came out at 0.0011 µg/mL. Moreover, in [8] (SW1736, 48 hours), the “GI50 Thyroid SW1736” value came out at 23.5 µg/mL.

Regarding “Sodium (E)-combretastatin A-4 3′-O-phosphate [Compound 4c]”, the “GI50 Pharynx FADU” value in [1] (FADU, 48 hours) was 0.071 µg/mL. In series [17] (SK-Mel-3, 48 hours), the “GI50 Melanoma SK-Mel-3” value came out at 0.036 µg/mL. The “Solubility” value in series [20] came out at 4000 µg/mL. The “solubility in water (in words)” value in [20] (water) was “sparingly soluble in water”. In series [12] (setting [24]), the “Minimum inhibitory amount per disk” value is 50–100 μg/disk. Moreover, the “GI50 Neuroblast SK-N-SH” value in series [3] (SK-N-SH, 48 hours) stood at 3.1 µg/mL. For the same compound, the “ED50 P-388” value in [4] (setting [23]) stood at 0.02 µg/mL. Moreover, the “GI50 Pancreas BXPC-3” value in series [5] (BXPC-3, 48 hours) was 4.0 µg/mL. In series [6] (NCI-H460, 48 hours), the “GI50 Lung-NSC NCI-H460” value was 0.038 µg/mL. Besides, in [7] (DU-145, 48 hours), the “GI50 Prostate DU-145” value stood at 0.044 µg/mL. In addition, in [8] (SW1736, 48 hours), the “GI50 Thyroid SW1736” value was determined as 11.2 µg/mL.

As for “Sodium (Z)-combretastatin A-4 3′-O-phosphate [Compound 3d]”, the “GI50 Pharynx FADU” value in [1] (FADU, 48 hours) amounted to 0.0045 µg/mL. In addition, the “Solubility” value in [20] amounted to 20000 µg/mL. Also, in series [12] (setting [24]), the “Minimum inhibitory amount per disk” value is recorded as 50–100 μg/disk. Moreover, the “growth inhibition of Neisseria gonorrhoeae (in words)” value in series [12] (disk susceptibility) was “inhibited growth”. Moreover, in series [18] (full-panel NCI screen, previously reported), the “Pearson correlation coefficient, TGI-COMPARE differential cytotoxicity profile versus combretastatin A-4 1a” value is recorded as 0.91. In addition, in [18] (full-panel NCI screen, quadruplicate, three concentration ranges, previously reported), the GI50 was 6.89 nM. Further, the “GI50 Neuroblast SK-N-SH” value in [3] (SK-N-SH, 48 hours) was 0.0025 µg/mL. The “ED50 P-388” value in [4] (setting [23]) was 0.00292 µg/mL. Moreover, the “GI50 Pancreas BXPC-3” value in series [5] (BXPC-3, 48 hours) came to 0.23 µg/mL. For the same compound, the “GI50 Lung-NSC NCI-H460” value in [6] (NCI-H460, 48 hours) amounted to 0.0035 µg/mL. For the same compound, the “GI50 Prostate DU-145” value in series [7] (DU-145, 48 hours) came out at 0.0072 µg/mL. In addition, in series [8] (SW1736, 48 hours), the “GI50 Thyroid SW1736” value came out at 0.0061 µg/mL.

The values above are taken from patent US7018987B1 (priority 1998, dated 2006).
